Consider one compound from US12233060B2, “Inhibitors of Ataxia-Telangiectasia Mutated and Rad3-related protein kinase (ATR) for use in methods of treating cancer” (THE INSTITUTE OF CANCER RESEARCH: ROYAL CANCER HOSPITAL, priority 2016, dated 2025).

For experiment [1], the system named is HCT116 ARID1A isogenic (+/+ and −/−) cell lines. The experiment in a line: Clonogenic survival of ARID1A isogenic cells. It counts as cell-based, human. The method, then:
FIG. 2. In vitro ARID1A/ATR synthetic lethality. A. Chemical structure of VX-970. B. Western blot of ARID1A in human ARID1A isogenic HCT116 cells. C. Image of colonies in 6 well-plate clonogenic assay. HCT116 ARID1A isogenic (^+/+ and ^−/−) cell lines were exposed to increasing concentrations of the VE-821 (0, 0.1, 1 uM) and VX-970 (0, 0.01, 0.05 uM) for 14 days. D and E. Dose response clonogenic survival curve of HCT116 ARID1A isogenic (^+/+ and ^−/−) cell lines exposed to increasing concentrations of the VE-821 and VX-970 for 14 days. Error bars represent SD from triplicate experiments, ANOVA p-value of <0.0001. F. Area under curve (AUC) box whisker comparison plot for human tumor cell lines exposed to VX-970 for five days. ARID1A wild type tumor cell lines (n=15) were compared to ARID1A mutant cell lines (n=9). Student's t-test p=0.00594. G. Dose response clonogenic survival curve of mouse Arid1a isogenic ES cell lines. Experiment was performed as per (C). Error bars represent SD from triplicate experiments, ANOVA p value of <0.0001. H. Western blot of Arid1a protein expression in mouse ES Arid1a isogenic cells. I. Z score box whisker comparison plot for 86 human tumor cell lines transfected with ATR siRNA. Cells lines were transfected with siRNA and cell viability was estimated five days later by Cell Titre Glo reagent.
Short-term survival assays were performed in 384-well plates. Exponentially growing cells were plated at a concentration of 500 cells/well. Drug was added 24 h after seeding and cells were continuously exposed to the drug for five days, after which cell viability was estimated using CellTitre-Glo luminescence (Promega). For clonogenic assays, cells were seeded in 6-well plates (500 cells/well) and continuously exposed to drug 24!h after seeding for 14 days. Media containing fresh drug was replaced every 72 hours. Cells were fixed with 10% trichloroacetic acid and stained with sulphorhodamine B (Sigma-Aldrich, Gillingham, UK). Colonies were counted manually. All cell-based assays were performed at least in triplicate.

Experiment [2] relates to TOV21G (ARID1A mutant) and RMG1 (ARID1A wildtype) cells. As to the kind of experiment: Five-day dose response in OCCC cell lines TOV21G and RMG1. It counts as cell-based, human. The note with it: 5 days exposure. The protocol:
FIG. 3. In vivo ARID1A/ATR synthetic lethality. A. Schematic of VX-970 therapy experiment in mice bearing established HCT116 ARID1A^+/+ and ARID1A^−/− xenografts. Cells were inoculated subcutaneously into nude mice and tumors allowed to establish for 10 days. Mice were then randomized to treatment regimens of either VX-970 (60 mg/kg, 4× weekly by oral gavage) or vehicle. Mice were then treated for a subsequent 40 days. Tumor volume was monitored twice weekly. B. Relative tumor volume plot from (A) showing efficacy of VX-970 and selectivity for ARID1A^−/− xenografts* p=0.024, ANOVA. C. Schematic of tumor incidence experiment in mice with non-established HCT116 ARID1A^+/+ and ARID1A^−/− xenografts. Mice were inoculated with cells as before, randomized and then treated with VX-970. […] Tumor volume was monitored twice weekly and overall tumour incidence was assessed 40 days later. […] PARP-1, cleaved PARP-1 (85 kDa fragment) and tubulin were detected by western blot. […] Caspase3/7 activity was assessed using Caspase-Glo and total cellular viability was estimated using CellTitre-Glo. Luminescence ratios for Caspase-Glo (i.e. apoptotic cells) and CellTitre-Glo (ie viable cells) was determined for each dose and normalized to DMSO treated samples. *Student's t-test, p<0.05. […]
Short-term survival assays were performed in 384-well plates. […] Colonies were counted manually. […]

For a further experiment, the system named is TOV21G xenografts. As to the kind of experiment: In vivo efficacy, established TOV21G xenografts. More on the design: species or system mice. Conditions: 60 mg/kg, 4x weekly oral gavage, 28 days; p=0.014 ANOVA.
Experiment [3] has as its system SYO1 cells. The experiment in a line: DNA fibre analysis, replication fork speed in SYO1 cells. The experiment is classed as cell-based, human. Conditions: 0.1 μM for two hours; p<0.0001. The protocol:
(§1) FIG. 10. ATR inhibitors elicit replication fork stress in SS tumour cells. […] Error bars represent SEM from triplicate experiments. p values were derived from Student's t tests. B. Western blot illustrating PARP1 cleavage in SYO1 cells exposed to VX970 for 24 hours. C. Western blot illustrating H2AX phosphorylation (γH2AX) in SYO1 cells exposed to VX970 (0.1 μM). D. Confocal microspcopy images illustrating H2AX phosphorylation in SYO1 cells exposed to VX970 (0.1 μM, 24 hours). E. Bar chart depicting data from (D). Error bars represent SEM from 100 images. p values were derived from Student's t tests. F. Replication fork speeds in SYO1 cells exposed to 0.1 μM VX970 for two hours. p value was derived from a Student's t test. G. Replication fork speeds in HCT116 cells exposed to 0.1 μM VX970 for two hours in the presence and absence of ectopic expression of a SS18-SSX1 fusion protein. p values were derived from Student's t tests. Expression of SS18-SSX1 or exposure to VX970 reduced fork speed. Combined SS18-SSX1 expression and VX970 exposure enhanced the reduction in fork speed. H and I. FACS plots from SYO1 cells exposed to VX970.
ATRi induced cytotoxicity in tumour cells derived from carcinomas is often associated with an increase in replication fork stress.

The subject of experiment [4] is SYO1 cells. As to the kind of experiment: FACS cell cycle and Caspase Glo apoptosis in SYO1 cells. The experiment is classed as cell-based, human. The protocol: as §1

Turning to `CNCc1ccc(-c2cc(-c3nc(-c4ccc(S(=O)(=O)C(C)C)cc4)cnc3N)on2)cc1` [VX-970, 5-[4-(Isopropylsulfonyl)phenyl]-3-(3-{4-[(methylamino)methyl]phenyl}-1,2-oxazol-5-yl)-2-pyrazinamine], the “ARID1A−/− selectivity compared with PARP inhibitors or cisplatin” value in experiment [1] is given as “greater than for other proposed ARID1A-targeted agents”. For the same compound, in experiment [2], the “sensitivity of TOV21G vs RMG1” value was “more sensitive to both VE-821 and VX-970”. Also, in the experiment on TOV21G xenografts, the “growth of established TOV21G tumours vs vehicle” value is listed as “significantly inhibited the growth”. In the experiment on SYO1 cells [3], the replication fork speed result is reported as “significant reduction in replication fork speed”. Further, the “sub G1 fraction” value in the experiment with SYO1 cells [4] (0.1 μM) is on record as “increase in the sub G1 fraction”. Also, in the experiment with SYO1 cells [4] (SS tumour cells exposed to VX970 (0.1 μM)), the “cell cycle, S phase” value is reported as “arrest in S phase”. Moreover, in the experiment on SYO1 cells [4] (SYO1 cells), the “apoptosis (Caspase Glo)” value was “apoptosis, estimated by Caspase Glo, caused by exposure”.
